The results in this text go back to PubChem BioAssay AID2060336 (Molecular Pharmacology Branch, DTP, NCI, 2025).

“And” between values parts separate entries of the source, which are not always exact repeats. Equal entries are not always repeated.

For the assay, the system named is 958767-090-R-J1-PDC spheroid growth. The experiment in a line: Anticancer human tumor 958767-090-R-J1-PDC patient-derived head and neck squamous carcinoma cell line growth inhibition [IpAb]. The following applies: spheroids with HUVEC and MSC; for viability, T/C: stronger effect = lower value. The source says: Combinatorial screen of targeted agents with ipatasertib and abemaciclib in multi-cell type tumor spheroids
A high-throughput screen of multi-cell type tumor spheroids was designed to identify active combinations of targeted small molecules and ipatasertib or abemaciclib. Complex spheroids include a stromal component modeled by human endothelial cells (HUVEC) and fibroblasts modeled by human mesenchymal stem cells (MSCs). The concentration ranges selected for each drug and investigational agent were based upon clinically achievable concentrations if the clinical Cmax of the agent was known.
Compounds. The drugs and investigational agents: ipatasertib (NSC767898), abemaciclib(NSC768073), selumetinib (NSC741078), trametinib (758246), adavosertib (NSC754352), everolimus (NSC733504), sapanisertib (NSC764658), vemurafenib (NSC761431), venetoclax (NSC766270), copanlisib (NSC809693), apelisib (NSC765974), palbociblib (NSC758247), vemurafenib (NSC761431), dabrafenib (NSC764134), ravoxertinib (NSC781343), BMS-387032 (NSC767048), sotorasib (NSC818433), talazoparib (NSC767125) and afursertib (NSC778305), were obtained from the National Cancer Institute (NCI) Developmental Therapeutics Program Chemical Repository. The FDA-approved anticancer drug set is available from the NCI Developmental Therapeutics Program. […] The stock solutions were prepared in dimethyl sulfoxide (DMSO, Sigma-Aldrich, St. Louis, MO, cat. D2650) at 800-fold the tested concentration and stored at -70 degrees C prior to their use. All drugs and investigational agents were tested over a range starting from a high concentration at or near the clinical Cmax and decreasing in half-log increments. If the clinical Cmax for an agent had not been determined, the highest concentration tested was 10 microM.
NCI60 Cell Culture. NCI60 cell lines were obtained from the NCI Developmental Therapeutics Program Tumor Repository. For each lot of cells, the Repository performed Applied Biosystems AmpFLSTR Identifiler testing with PCR amplification to confirm consistency with the published Identifier STR profile for each cell line. Cells were kept in continuous culture for no more than 20 passages. The optimal seeding densities for each of the cell lines at each time point assessed were determined prior to performing the concentration response studies. Briefly, the NCI60 human tumor lines were grown as monolayers in RPMI 1640 medium supplemented with 10% FBS and 2 mmol/L L-glutamine.
An additional 9 lines were from the NCI60 cell line panel including MDA-MB-231 breast carcinoma, MDA-MB-468 breast carcinoma, MCF7 breast carcinoma, Hs578T breast carcinoma, MALME-3M melanoma, SK-MEL-2 melanoma, SK-OV-3 ovarian carcinoma, DU-145 prostate carcinoma, PC-3 prostate carcinoma, all cell lines along with major genetic alterations are listed on Table 2. Pooled donor human umbilical vein endothelial cells (HUVEC, Lonza, cat. CC-2519) and human mesenchymal stem cells (hMSC, Lonza, cat. PT-2501) were purchased from Lonza (Walkersville, MD).
PDMR cell lines were grown in complete medium (DC medium): Dulbecco's modified Eagle's medium (DMEM)/F12 supplemented with 5% fetal bovine serum (FBS), 2 mM L-glutamine, 100 U/mL penicillin and 100 µg/ml streptomycin, 0.4 µg/ml hydrocortisone, 10 ng/ml epidermal growth factor (EGF) recombinant human protein, 24 µg/mL adenine, and 0.1 mg/mL primocin. During culture from frozen stock vials, PDMR cells were cultured in the same medium containing 10 µM Y-27632 (see Table 3). The PDCs were cultured in complete DMEM/F12 media without 10 microM Y-27632 dihydrochloride for at least two passages prior to the screen. The pooled donor HUVEC and hMSC were cultured in endothelial cell growth medium 2 (PromoCell, Heidelberg, Germany, cat. C-22011) and mesenchymal stem cell growth medium 2 (PromoCell, cat. C-28009), respectively. For all experiments, HUVEC and hMSC were used at passages </=5.
[…]
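Further: spheroids exposed to agents for 7 days.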
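Wherever viability, T/C is given: 100% = DMSO vehicle control wells.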

One may read the viability, T/C as the result in the treated group divided by that in the control group, in per cent. A word on the IC50: it is the concentration at which inhibition is half-maximal. With `CC(=O)c1c(C)c2cnc(Nc3ccc(N4CCNCC4)cn3)nc2n(C2CCCC2)c1=O`, the viability, T/C is, setting by setting: (compound 0.000949 µM) 76.6% and 103%; (compound 0.003 µM) 66.5% and 83.4%; (compound 0.00949 µM) 62.2% and 75.6%; (compound 0.03 µM) 62.2% and 68.8%; (compound 0.0949 µM) 63.7% and 65.3%; (compound 0.3 µM) 54.1% and 51.8%. Moreover, for the setting “curve of compound”, the IC50 was over 300 nM.

As for `Cn1ncnc1[C@H]1c2n[nH]c(=O)c3cc(F)cc(c23)N[C@@H]1c1ccc(F)cc1`, the viability, T/C is, setting by setting: (compound 0.000316 µM) 123% and 91.8%; (compound 0.001 µM) 81.7% and 109%; (compound 0.00316 µM) 80.4% and 90.1%; (compound 0.01 µM) 73.3% and 91.3%; (compound 0.0316 µM) 79.7% and 80.1%; (compound 0.1 µM) 70.6% and 68.1%. Moreover, the IC50 (curve of compound) was over 100 nM.

Turning to `Cn1ncc(Cl)c1-c1cc(C(=O)NC(CN)Cc2cccc(F)c2)sc1Cl` (stereo not drawn), the viability, T/C was 81.8% and 95% (compound 0.0316 µM); 73.2% and 88.4% (compound 0.1 µM); 68.2% and 60.5% (compound 0.316 µM); 57.1% and 44.8% (compound 1 µM); 39% and 31.4% (compound 3.16 µM); 0.18% and 0.23% (compound 10 µM). The IC50 (curve of compound) is 1540 nM and 837 nM.

Take `CC(C)NCC(C(=O)N1CCN(c2ncnc3c2C(C)CC3O)CC1)c1ccc(Cl)cc1` (stereo not drawn): the viability, T/C by setting is: (compound 0.1 µM) 90.6% [middle of 13 runs]; (compound 1 µM) 50.7% [middle of 13 runs].

For the compound `Cn1ncc(Cl)c1-c1cc(C(=O)NC(CN)Cc2cccc(F)c2)sc1Cl` (stereo not drawn) + CCN1CCN(Cc2ccc(Nc3ncc(F)c(-c4cc(F)c5nc(C)n(C(C)C)c5c4)n3)nc2)CC1, the IC50 is, setting by setting: (curve of first compound, second compound 0.01 µM) 786 nM; (curve of first compound, second compound 0.0316 µM) 647 nM; (curve of first compound, second compound 0.1 µM) 614 nM; (curve of first compound, second compound 0.316 µM) 1080 nM; (curve of first compound, second compound 1 µM) 818 nM. For the same compound, the viability, T/C is, setting by setting: (second compound 0.01 µM, first compound 0.0316 µM) 89.7%; (second compound 0.01 µM, first compound 0.1 µM) 76.1%; (second compound 0.01 µM, first compound 0.316 µM) 58.8%; (second compound 0.01 µM, first compound 1 µM) 45.4%; (second compound 0.01 µM, first compound 3.16 µM) 33.5%; (second compound 0.01 µM, first compound 10 µM) 0.14%. Besides, the viability, T/C is 75.1% (second compound 0.0316 µM, first compound 0.0316 µM); 74.5% (second compound 0.0316 µM, first compound 0.1 µM); 62.6% (second compound 0.0316 µM, first compound 0.316 µM); 38.3% (second compound 0.0316 µM, first compound 1 µM); 25.5% (second compound 0.0316 µM, first compound 3.16 µM); 0.15% (second compound 0.0316 µM, first compound 10 µM). In addition, the viability, T/C reads like this: (second compound 0.1 µM, first compound 0.0316 µM) 73.2%; (second compound 0.1 µM, first compound 0.1 µM) 65.9%; (second compound 0.1 µM, first compound 0.316 µM) 51.5%; (second compound 0.1 µM, first compound 1 µM) 46.1%; (second compound 0.1 µM, first compound 3.16 µM) 30.3%; (second compound 0.1 µM, first compound 10 µM) 0.18%. Besides, the viability, T/C (second compound 0.316 µM, first compound 0.0316 µM) is 62.7%; the viability, T/C (second compound 0.316 µM, first compound 0.1 µM) was 46.6%; the viability, T/C (second compound 0.316 µM, first compound 0.316 µM) was 47.1%; the viability, T/C (second compound 0.316 µM, first compound 1 µM) is 52.5%; the viability, T/C (second compound 0.316 µM, first compound 3.16 µM) is 19.7%; the viability, T/C (second compound 0.316 µM, first compound 10 µM) is 0.17%. Moreover, the viability, T/C is 83.7% (second compound 1 µM, first compound 0.0316 µM); 63.3% (second compound 1 µM, first compound 0.1 µM); 62.3% (second compound 1 µM, first compound 0.316 µM); 50.9% (second compound 1 µM, first compound 1 µM); 27.9% (second compound 1 µM, first compound 3.16 µM); 1.92% (second compound 1 µM, first compound 10 µM).
